# Test results from the supplement of paper PMC10307832.
# Key:
# Assay in all cases: relative viability (nuclei count vs DMSO), 5 days (fraction); higher = more cells survive
# BEN = tested on: BEN
# Procedure, shortened: (§1)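 Values are medians from duplicate plates. Each reflects relative viability, defined as the nuclei count of treated wells over that of vehicle wells. Lung cancer cell lines in 1536-well plates were pin-tool dosed one day after seeding with one drug alone or with a fixed anchor-drug dose plus five library-drug doses (not always all listed) in √10 steps, then fixed, stained and imaged at 4× after 5 days.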
# EKVX = tested on: EKVX
# Procedure, shortened: as §1
# HARA = tested on: HARA
# Procedure, shortened: as §1
# HCC-366 = tested on: HCC-366
# Procedure, shortened: as §1
# HCC-827 = tested on: HCC-827
# Procedure, shortened: as §1
# LC-2-ad = tested on: LC-2-ad
# Procedure, shortened: as §1
# LOU-NH91 = tested on: LOU-NH91
# Procedure, shortened: as §1
# NCI-H1355 = tested on: NCI-H1355
# Procedure, shortened: as §1
# NCI-H1395 = tested on: NCI-H1395
# Procedure, shortened: as §1
# NCI-H1437 = tested on: NCI-H1437
# Procedure, shortened: as §1
# NCI-H1734 = tested on: NCI-H1734
# Procedure, shortened: as §1
# NCI-H1792 = tested on: NCI-H1792
# Procedure, shortened: as §1
# NCI-H2009 = tested on: NCI-H2009
# Procedure, shortened: as §1
# NCI-H2087 = tested on: NCI-H2087
# Procedure, shortened: as §1
# NCI-H2170 = tested on: NCI-H2170
# Procedure, shortened: as §1
# NCI-H2228 = tested on: NCI-H2228
# Procedure, shortened: as §1
# NCI-H2342 = tested on: NCI-H2342
# Procedure, shortened: as §1
# NCI-H2405 = tested on: NCI-H2405
# Procedure, shortened: as §1
# NCI-H596 = tested on: NCI-H596
# Procedure, shortened: as §1
# NCI-H647 = tested on: NCI-H647
# Procedure, shortened: as §1
# NCI-H661 = tested on: NCI-H661
# Procedure, shortened: as §1
# SK-LU-1 = tested on: SK-LU-1
# Procedure, shortened: as §1
# SK-MES-1 = tested on: SK-MES-1
# Procedure, shortened: as §1
compound,measurement,setting,value
COc1cc(N2CCC(C(N)=O)CC2)ccc1Nc1nc(N)c(Cl)c(Nc2ccccc2S(=O)(=O)C(C)C)n1 [HG-5-88-01] + Cc1nc(Nc2ncc(C(=O)Nc3c(C)cccc3Cl)s2)cc(N2CCN(CCO)CC2)n1 [Dasatinib] (partner 0.075 µM),relative viability,BEN; first compound 0.04 µM,0.227
same,relative viability,BEN; first compound 0.1265 µM,0.337
same,relative viability,BEN; first compound 0.4 µM,0.291
same,relative viability,BEN; first compound 1.265 µM,0.319
same,relative viability,BEN; first compound 4 µM,0.26
same,relative viability,EKVX; first compound 0.04 µM,0.479
same,relative viability,EKVX; first compound 0.1265 µM,0.563
same,relative viability,EKVX; first compound 0.4 µM,0.435
same,relative viability,EKVX; first compound 4 µM,0.273
same,relative viability,HARA; first compound 0.04 µM,0.25
same,relative viability,HARA; first compound 0.1265 µM,0.255
same,relative viability,HARA; first compound 0.4 µM,0.147
same,relative viability,HARA; first compound 1.265 µM,0.113
same,relative viability,HARA; first compound 4 µM,0.219
same,relative viability,HCC-366; first compound 0.04 µM,0.65
same,relative viability,HCC-366; first compound 0.1265 µM,0.677
same,relative viability,HCC-366; first compound 0.4 µM,0.514
same,relative viability,HCC-366; first compound 1.265 µM,0.691
same,relative viability,HCC-366; first compound 4 µM,0.3
same,relative viability,HCC-827; first compound 0.04 µM,0.279
same,relative viability,HCC-827; first compound 0.1265 µM,0.271
same,relative viability,HCC-827; first compound 0.4 µM,0.235
same,relative viability,HCC-827; first compound 1.265 µM,0.101
same,relative viability,HCC-827; first compound 4 µM,0.118
same,relative viability,LC-2-ad; first compound 0.04 µM,0.633
same,relative viability,LC-2-ad; first compound 0.1265 µM,0.469
same,relative viability,LC-2-ad; first compound 0.4 µM,0.261
same,relative viability,LC-2-ad; first compound 1.265 µM,0.287
same,relative viability,LC-2-ad; first compound 4 µM,0.205
same,relative viability,LOU-NH91; first compound 0.04 µM,0.57
same,relative viability,LOU-NH91; first compound 0.1265 µM,0.524
same,relative viability,LOU-NH91; first compound 0.4 µM,0.493
same,relative viability,LOU-NH91; first compound 1.265 µM,0.321
same,relative viability,LOU-NH91; first compound 4 µM,0.243
same,relative viability,NCI-H1355; first compound 0.04 µM,0.675
same,relative viability,NCI-H1355; first compound 0.1265 µM,0.77
same,relative viability,NCI-H1355; first compound 0.4 µM,0.597
same,relative viability,NCI-H1355; first compound 1.265 µM,0.574
same,relative viability,NCI-H1355; first compound 4 µM,0.388
same,relative viability,NCI-H1395; first compound 0.04 µM,0.416
same,relative viability,NCI-H1395; first compound 0.1265 µM,0.371
same,relative viability,NCI-H1395; first compound 0.4 µM,0.393
same,relative viability,NCI-H1395; first compound 1.265 µM,0.394
same,relative viability,NCI-H1395; first compound 4 µM,0.36
same,relative viability,NCI-H1437; first compound 0.04 µM,0.411
same,relative viability,NCI-H1437; first compound 0.1265 µM,0.306
same,relative viability,NCI-H1437; first compound 0.4 µM,0.231
same,relative viability,NCI-H1437; first compound 1.265 µM,0.234
same,relative viability,NCI-H1437; first compound 4 µM,0.267
same,relative viability,NCI-H1734; first compound 0.04 µM,0.412
same,relative viability,NCI-H1734; first compound 0.1265 µM,0.432
same,relative viability,NCI-H1734; first compound 0.4 µM,0.326
same,relative viability,NCI-H1734; first compound 1.265 µM,0.358
same,relative viability,NCI-H1734; first compound 4 µM,0.284
same,relative viability,NCI-H1792; first compound 0.04 µM,0.959
same,relative viability,NCI-H1792; first compound 0.1265 µM,0.693
same,relative viability,NCI-H1792; first compound 0.4 µM,0.78
same,relative viability,NCI-H1792; first compound 4 µM,0.525
same,relative viability,NCI-H2009; first compound 0.04 µM,0.26
same,relative viability,NCI-H2009; first compound 0.1265 µM,0.251
same,relative viability,NCI-H2009; first compound 0.4 µM,0.161
same,relative viability,NCI-H2009; first compound 1.265 µM,0.141
same,relative viability,NCI-H2009; first compound 4 µM,0.156
same,relative viability,NCI-H2087; first compound 0.04 µM,0.826
same,relative viability,NCI-H2087; first compound 0.1265 µM,0.787
same,relative viability,NCI-H2087; first compound 0.4 µM,0.601
same,relative viability,NCI-H2087; first compound 1.265 µM,0.389
same,relative viability,NCI-H2087; first compound 4 µM,0.167
same,relative viability,NCI-H2170; first compound 0.04 µM,0.502
same,relative viability,NCI-H2170; first compound 0.1265 µM,0.441
same,relative viability,NCI-H2170; first compound 0.4 µM,0.498
same,relative viability,NCI-H2170; first compound 1.265 µM,0.165
same,relative viability,NCI-H2170; first compound 4 µM,0.269
same,relative viability,NCI-H2228; first compound 0.04 µM,0.106
same,relative viability,NCI-H2228; first compound 0.1265 µM,0.0974
same,relative viability,NCI-H2228; first compound 0.4 µM,0.0904
same,relative viability,NCI-H2228; first compound 1.265 µM,0.101
same,relative viability,NCI-H2228; first compound 4 µM,0.0733
same,relative viability,NCI-H2342; first compound 0.04 µM,0.281
same,relative viability,NCI-H2342; first compound 0.1265 µM,0.336
same,relative viability,NCI-H2342; first compound 0.4 µM,0.308
same,relative viability,NCI-H2342; first compound 1.265 µM,0.307
same,relative viability,NCI-H2342; first compound 4 µM,0.268
same,relative viability,NCI-H2405; first compound 0.04 µM,0.207
same,relative viability,NCI-H2405; first compound 0.1265 µM,0.179
same,relative viability,NCI-H2405; first compound 0.4 µM,0.155
same,relative viability,NCI-H2405; first compound 1.265 µM,0.197
same,relative viability,NCI-H2405; first compound 4 µM,0.153
same,relative viability,NCI-H596; first compound 0.04 µM,0.6
same,relative viability,NCI-H596; first compound 0.1265 µM,0.494
same,relative viability,NCI-H596; first compound 0.4 µM,0.544
same,relative viability,NCI-H596; first compound 1.265 µM,0.416
same,relative viability,NCI-H596; first compound 4 µM,0.288
same,relative viability,NCI-H647; first compound 0.04 µM,0.162
same,relative viability,NCI-H647; first compound 0.1265 µM,0.216
same,relative viability,NCI-H647; first compound 0.4 µM,0.114
same,relative viability,NCI-H647; first compound 1.265 µM,0.0855
same,relative viability,NCI-H647; first compound 4 µM,0.112
same,relative viability,NCI-H661; first compound 0.04 µM,0.939
same,relative viability,NCI-H661; first compound 0.1265 µM,0.941
same,relative viability,NCI-H661; first compound 0.4 µM,0.791
same,relative viability,NCI-H661; first compound 1.265 µM,0.514
same,relative viability,NCI-H661; first compound 4 µM,0.664
same,relative viability,SK-LU-1; first compound 0.04 µM,0.178
same,relative viability,SK-LU-1; first compound 0.1265 µM,0.182
same,relative viability,SK-LU-1; first compound 0.4 µM,0.106
same,relative viability,SK-LU-1; first compound 1.265 µM,0.123
same,relative viability,SK-LU-1; first compound 4 µM,0.0874
same,relative viability,SK-MES-1; first compound 0.04 µM,0.335
same,relative viability,SK-MES-1; first compound 0.1265 µM,0.304
same,relative viability,SK-MES-1; first compound 0.4 µM,0.124
same,relative viability,SK-MES-1; first compound 1.265 µM,0.112
same,relative viability,SK-MES-1; first compound 4 µM,0.155
